In ChEMBL document CHEMBL4043271, “Synthesis, computational studies and enzyme inhibitory kinetics of substituted methyl[2-(4-dimethylamino-benzylidene)-hydrazono)-4-oxo-thiazolidin-5-ylidene]acetates as mushroom tyrosinase inhibitors” (Bioorg Med Chem, 2017):
Active and inactive are the calls of the source. No cut-off for these calls is given here.

Legend:
[1] = molecular target: T1, Mushroom tyrosinase (Agaricus bisporus, UniProt O42713+Q00024+C7FF04+C7FF05); assay: Inhibition of mushroom tyrosinase using L-DOPA as substrate preincubated for 10 mins followed by substrate addition measured after 20 mins
[2] = molecular target: T1, Mushroom tyrosinase; assay: Non-competitive inhibition of mushroom tyrosinase at 1.06 to 17 uM preincubated for 10 mins followed by addition of varying concentration of substrate L-DOPA measured after 20 mins by Lineweaver-Burk plot analysis
[3] = molecular target: Mushroom tyrosinase (Agaricus bisporus) (UniProt O42713+Q00024+C7FF04+C7FF05); assay: Non-competitive inhibition of mushroom tyrosinase at 1.06 to 34 uM preincubated for 10 mins followed by addition of varying concentration of substrate L-DOPA measured after 20 mins by Dixon plot analysis
[4] = tested on: COC(=O)/C=C1\S/C(=N/N=C/c2ccncc2)NC1=O; assay: Non-competitive inhibition of mushroom tyrosinase assessed as Vmax of substrate at 1.06 uM preincubated for 10 mins followed by addition of varying concentration of substrate L-DOPA measured every 30 secs up to 5 mins by Lineweaver-Burk plot analysis (reference value: […] deltaA/s); conditions: Agaricus bisporus
[5] = tested on: COC(=O)/C=C1\S/C(=N/N=C/c2ccncc2)NC1=O; assay: Non-competitive inhibition of mushroom tyrosinase assessed as Vmax of substrate at 8.50 uM preincubated for 10 mins followed by addition of varying concentration of substrate L-DOPA measured every 30 secs up to 5 mins by Lineweaver-Burk plot analysis (reference value: […] deltaA/s); conditions: Agaricus bisporus
[6] = tested on: COC(=O)/C=C1\S/C(=N/N=C/c2ccncc2)NC1=O; assay: Non-competitive inhibition of mushroom tyrosinase assessed as substrate Km at 1.06 to 17 uM preincubated for 10 mins followed by addition of varying concentration of substrate L-DOPA measured after 20 mins by Lineweaver-Burk plot analysis (reference value: […] mM); conditions: Agaricus bisporus
[7] = tested on: COC(=O)/C=C1\S/C(=N/N=C/c2ccncc2)NC1=O; assay: Non-competitive inhibition of mushroom tyrosinase assessed as Vmax of substrate at 17 uM preincubated for 10 mins followed by addition of varying concentration of substrate L-DOPA measured every 30 secs up to 5 mins by Lineweaver-Burk plot analysis (reference value: […] deltaA/s); conditions: Agaricus bisporus

Mushroom tyrosinase (Agaricus bisporus) (from UniProt O42713+Q00024+C7FF04+C7FF05), sequence (C7FF05 whole entry, looked up): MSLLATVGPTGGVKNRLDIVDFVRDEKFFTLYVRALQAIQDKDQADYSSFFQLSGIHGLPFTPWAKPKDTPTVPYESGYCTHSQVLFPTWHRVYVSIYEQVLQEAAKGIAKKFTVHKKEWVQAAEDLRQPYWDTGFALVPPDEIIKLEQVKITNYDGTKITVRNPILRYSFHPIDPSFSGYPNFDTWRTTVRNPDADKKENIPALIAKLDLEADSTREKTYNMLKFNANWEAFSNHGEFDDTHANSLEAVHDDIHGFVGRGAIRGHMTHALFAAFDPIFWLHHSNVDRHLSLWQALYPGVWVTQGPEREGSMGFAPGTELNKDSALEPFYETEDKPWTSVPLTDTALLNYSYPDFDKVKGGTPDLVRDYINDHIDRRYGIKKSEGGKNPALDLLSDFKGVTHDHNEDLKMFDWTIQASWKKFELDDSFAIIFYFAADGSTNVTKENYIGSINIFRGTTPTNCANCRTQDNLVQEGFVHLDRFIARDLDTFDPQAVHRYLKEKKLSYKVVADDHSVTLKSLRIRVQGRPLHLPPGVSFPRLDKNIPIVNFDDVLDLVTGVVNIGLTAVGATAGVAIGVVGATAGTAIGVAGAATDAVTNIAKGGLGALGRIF
Mushroom tyrosinase (Agaricus bisporus) (from UniProt O42713+Q00024+C7FF04+C7FF05), sequence (C7FF04 whole entry, looked up): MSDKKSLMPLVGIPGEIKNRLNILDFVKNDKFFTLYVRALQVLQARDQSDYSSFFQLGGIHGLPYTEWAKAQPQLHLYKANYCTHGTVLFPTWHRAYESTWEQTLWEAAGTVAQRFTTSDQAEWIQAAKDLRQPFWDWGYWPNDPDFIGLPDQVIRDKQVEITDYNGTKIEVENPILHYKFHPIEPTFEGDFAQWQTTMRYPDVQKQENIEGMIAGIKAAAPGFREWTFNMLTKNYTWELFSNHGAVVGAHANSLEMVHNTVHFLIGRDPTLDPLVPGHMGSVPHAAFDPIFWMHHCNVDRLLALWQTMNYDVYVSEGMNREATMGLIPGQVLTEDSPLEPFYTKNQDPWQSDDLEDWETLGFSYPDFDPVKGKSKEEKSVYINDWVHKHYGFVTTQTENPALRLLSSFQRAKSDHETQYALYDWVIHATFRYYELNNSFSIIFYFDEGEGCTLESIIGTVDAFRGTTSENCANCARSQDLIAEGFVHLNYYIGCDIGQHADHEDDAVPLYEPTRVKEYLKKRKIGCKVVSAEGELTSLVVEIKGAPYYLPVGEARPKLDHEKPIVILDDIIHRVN
Mushroom tyrosinase (Agaricus bisporus) (from UniProt O42713+Q00024+C7FF04+C7FF05), sequence (Q00024 whole entry, looked up): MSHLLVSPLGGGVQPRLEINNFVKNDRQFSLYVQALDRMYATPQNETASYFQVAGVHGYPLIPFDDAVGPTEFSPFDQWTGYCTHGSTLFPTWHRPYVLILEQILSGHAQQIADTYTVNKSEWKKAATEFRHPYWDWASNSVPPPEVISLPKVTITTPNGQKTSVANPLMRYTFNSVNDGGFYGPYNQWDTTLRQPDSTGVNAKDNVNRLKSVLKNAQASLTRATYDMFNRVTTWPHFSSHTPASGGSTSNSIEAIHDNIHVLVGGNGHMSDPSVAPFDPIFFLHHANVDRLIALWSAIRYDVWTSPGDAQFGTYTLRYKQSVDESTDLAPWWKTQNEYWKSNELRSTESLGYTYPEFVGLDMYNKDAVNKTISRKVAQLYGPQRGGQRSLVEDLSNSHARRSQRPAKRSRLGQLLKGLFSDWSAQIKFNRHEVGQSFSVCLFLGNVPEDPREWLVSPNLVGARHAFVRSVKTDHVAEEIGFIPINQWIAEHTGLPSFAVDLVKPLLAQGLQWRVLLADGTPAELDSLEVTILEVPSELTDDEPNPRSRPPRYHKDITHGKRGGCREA
Mushroom tyrosinase (Agaricus bisporus) (from UniProt O42713+Q00024+C7FF04+C7FF05), sequence (O42713 whole entry, looked up): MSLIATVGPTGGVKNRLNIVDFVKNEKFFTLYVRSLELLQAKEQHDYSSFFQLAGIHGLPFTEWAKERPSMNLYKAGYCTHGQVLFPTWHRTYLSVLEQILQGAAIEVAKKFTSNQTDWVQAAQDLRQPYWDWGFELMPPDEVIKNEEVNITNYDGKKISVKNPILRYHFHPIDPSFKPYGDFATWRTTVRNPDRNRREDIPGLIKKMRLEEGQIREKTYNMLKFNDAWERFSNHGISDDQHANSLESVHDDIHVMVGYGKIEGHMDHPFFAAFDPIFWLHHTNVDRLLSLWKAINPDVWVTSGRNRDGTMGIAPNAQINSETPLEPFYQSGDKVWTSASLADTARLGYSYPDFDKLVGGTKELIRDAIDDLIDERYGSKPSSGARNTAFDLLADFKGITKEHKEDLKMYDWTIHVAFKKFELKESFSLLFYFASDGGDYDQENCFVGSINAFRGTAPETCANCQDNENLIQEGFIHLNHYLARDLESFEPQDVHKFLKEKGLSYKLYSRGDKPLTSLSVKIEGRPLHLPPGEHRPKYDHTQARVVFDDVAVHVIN

Row | Compound | IC50 [1] | further results
1 | COC(=O)/C=C1\S/C(=N/N=C/c2ccc(OCc3ccc(OC)cc3)cc2)NC1=O | 297.6 µM | 
2 | COC(=O)/C=C1\S/C(=N/N=C/c2ccc(C)o2)NC1=O | 49.82 µM | 
3 | COC(=O)/C=C1\S/C(=N/N=C/c2ccc(OCc3ccccc3)cc2)NC1=O | 141.77 µM | 
4 | COC(=O)/C=C1\S/C(=N/N=C/c2ccc[nH]2)NC1=O | 50.12 µM | 
5 | Mushroom tyrosinase (Agaricus bisporus) (from UniProt O42713+Q00024+C7FF04+C7FF05) |  | Vmax (10'-4deltaA/s) [4]: 5.55; Vmax (10'-3deltaA/s) [5]: 1; Km [6]: 1000 µM; Vmax (10'-3deltaA/s) [7]: 3.33

Second part, led by results:

Row | IC50 [1] | Compound | further results
6 | 75.26 µM | COC(=O)/C=C1\SC(N/N=C/c2ccco2)=NC1=O | 
7 | 208.25 µM | COC(=O)/C=C1\S/C(=N/N=C/C=C/c2ccccc2)NC1=O | 
8 | 3.17 µM | COC(=O)/C=C1\S/C(=N/N=C/c2ccncc2)NC1=O | Ki [2]: 1.5 µM; inhibition [3]: Active
9 | 348.93 µM | COC(=O)/C=C1\S/C(=N/N=C/c2ccc(Br)s2)NC1=O | 
10 | 100.45 µM | COC(=O)/C=C1\S/C(=N/N=C/c2ccc(N(C)C)cc2)NC1=O | 
